The values below are quoted from earlier work in patent publication US9962342B1, “Pharmaceutical composition containing guaifenesin and application thereof” (Sunny Pharmtech Inc., priority 2017, dated 2018).

For the data set the following is noted: in vivo.

In the case of `COc1ccccc1OCC(O)CO` (stereo not shown) [Guaifenesin], the half-life entry was “approximately 1 hour”.
